Data taken from ChEMBL document CHEMBL4680171, “Oxadiazolylthiazoles as novel and selective antifungal agents” (Eur J Med Chem, 2020).

How the values were obtained:
[1] = Selectivity index, ratio of maximum non-toxic concentration for human Caco-2 cells to MIC for antifungal activity against Candida glabrata ATCC MYA-2950; assay type: toxicity; conditions: read-out: Selectivity Index
[2] = Selectivity index, ratio of CC50 for African green monkey Vero cells to MIC for antifungal activity against Cryptococcus neoformans NR41298; assay type: toxicity; conditions: read-out: Selectivity Index
[3] = Selectivity index, ratio of CC50 for African green monkey Vero cells to MIC for antifungal activity against fluconazole-resistant Candida auris 383; assay type: toxicity; conditions: read-out: Selectivity Index
Lactobacillus crispatus = assay: Antibacterial activity against Lactobacillus crispatus HM-370 assessed as reduction in bacterial growth by CLSI based assay
[4] = Selectivity index, ratio of maximum non-toxic concentration for human Caco-2 cells to MIC for antifungal activity against fluconazole-resistant Candida albicans NR29448; assay type: toxicity; conditions: read-out: Selectivity Index
[5] = Selectivity index, ratio of maximum non-toxic concentration for human Caco-2 cells to MIC for antifungal activity against Cryptococcus gattii NR43210; assay type: toxicity; conditions: read-out: Selectivity Index
Candida albicans [6] = assay: Antibiofilm activity against Candida albicans NR29448 assessed as reduction in biofilm formation at 0.5XMIC incubated for 24 hrs by crystal violet staining based assay relative to control; assay type: functional
Candida albicans [7] = assay: Antifungal activity against Candida albicans SS5314 assessed as reduction in fungal growth incubated for 24 hrs by CLSI based broth microdilution method; assay type: functional
[8] = Selectivity index, ratio of maximum non-toxic concentration for human Caco-2 cells to MIC for antifungal activity against Aspergillus fumigatus NR 35304; assay type: toxicity; conditions: read-out: Selectivity Index
[Candida] auris [9] = Antifungal activity against fluconazole-resistant Candida auris 383 assessed as reduction in fungal growth incubated for 24 hrs by CLSI based broth microdilution method; assay type: functional; conditions: Candidozyma auris
[10] = Selectivity index, ratio of CC50 for African green monkey Vero cells to MIC for antifungal activity against Candida glabrata ATCC MYA-2950; assay type: toxicity; conditions: read-out: Selectivity Index
Cryptococcus neoformans = assay: Antifungal activity against Cryptococcus neoformans NR41300 assessed as reduction in fungal growth incubated for 48 hrs by CLSI based broth microdilution method; assay type: functional
[11] = tested on: Cryptococcus gattii species complex; assay: Antifungal activity against Cryptococcus gattii NR43209 assessed as reduction in fungal growth incubated for 48 hrs by CLSI based broth microdilution method; assay type: functional, Cryptococcus bacillisporus
[Candida] auris [12] = Antifungal activity against fluconazole-resistant Candida auris 381 assessed as reduction in fungal growth incubated for 24 hrs by CLSI based broth microdilution method; assay type: functional; conditions: Candidozyma auris
Aspergillus fumigatus [13] = assay: Antifungal activity against Aspergillus fumigatus NR 35303 assessed as reduction in fungal growth incubated for 24 hrs by CLSI based broth microdilution method; assay type: functional
Candida albicans [14] = assay: Antifungal activity against Candida albicans ATCC 10231 assessed as reduction in fungal growth incubated for 24 hrs by CLSI based broth microdilution method; assay type: functional
[15] = Selectivity index, ratio of maximum non-toxic concentration for human Caco-2 cells to MIC for antifungal activity against fluconazole-resistant Candida auris 381; assay type: toxicity; conditions: read-out: Selectivity Index
[16] = Selectivity index, ratio of CC50 for African green monkey Vero cells to MIC for antifungal activity against Candida parapsilosis CAB 502638; assay type: toxicity; conditions: read-out: Selectivity Index
[17] = tested on: Cryptococcus gattii species complex; assay: Antifungal activity against Cryptococcus gattii NR43210 assessed as reduction in fungal growth incubated for 48 hrs by CLSI based broth microdilution method; assay type: functional, Cryptococcus bacillisporus
[18] = Selectivity index, ratio of maximum non-toxic concentration for human Caco-2 cells to MIC for antifungal activity against Candida krusei CAB 396420; assay type: toxicity; conditions: read-out: Selectivity Index
Escherichia coli = assay: Antibacterial activity against Escherichia coli BW25113 assessed as reduction in bacterial growth by CLSI based broth microdilution method; assay type: functional
Pichia kudriavzevii [19] = assay: Antifungal activity against Candida krusei ATCC 34135 assessed as reduction in fungal growth incubated for 24 hrs by CLSI based broth microdilution method; assay type: functional
Lactobacillus gasseri = assay: Antibacterial activity against Lactobacillus gasseri HM-400 assessed as reduction in bacterial growth by CLSI based assay
Aspergillus fumigatus [20] = assay: Antifungal activity against Aspergillus fumigatus NR 35304 assessed as reduction in fungal growth incubated for 24 hrs by CLSI based broth microdilution method; assay type: functional
[21] = Selectivity index, ratio of maximum non-toxic concentration for human Caco-2 cells to MIC for antifungal activity against fluconazole-resistant Candida auris 384; assay type: toxicity; conditions: read-out: Selectivity Index
[22] = Selectivity index, ratio of maximum non-toxic concentration for human Caco-2 cells to MIC for antifungal activity against Cryptococcus neoformans NR48770; assay type: toxicity; conditions: read-out: Selectivity Index
[23] = Cytotoxicity against human Caco-2 cells assessed as cell viability up to 64 ug/ml incubated for 24 hrs by MTS assay; assay type: cell-based; conditions: dose <=64 µg/ml, read-out: Activity
Clostridioides difficile = assay: Antibacterial activity against Clostridium difficile BAA1870 assessed as reduction in bacterial growth by CLSI based broth microdilution method; assay type: functional
Candida albicans [24] = assay: Antibiofilm activity against 24 hrs preformed biofilm of Candida albicans NR29448 assessed as disruption of mature biofilm at 64 ug/ml incubated for 24 hrs by crystal violet staining based spectrophotometry relative to control; assay type: functional; conditions: dose 64 µg/ml
Pichia kudriavzevii [25] = assay: Antifungal activity against Candida krusei CAB 396420 assessed as reduction in fungal growth incubated for 24 hrs by CLSI based broth microdilution method; assay type: functional
[26] = Selectivity index, ratio of maximum non-toxic concentration for human Caco-2 cells to MIC for antifungal activity against Candida parapsilosis ATCC 22019; assay type: toxicity; conditions: read-out: Selectivity Index
Candida albicans [27] = assay: Antifungal activity against Candida albicans SS5314 assessed as reduction in fungal growth by CLSI based broth microdilution method; assay type: functional
Lacticaseibacillus casei = assay: Antibacterial activity against Lactobacillus casei HM-334 assessed as reduction in bacterial growth by CLSI based assay; assay type: organism-based
Candida albicans [28] = assay: Antifungal activity against fluconazole-resistant Candida albicans NR29448 assessed as reduction in fungal growth incubated for 24 hrs by CLSI based broth microdilution method; assay type: functional
[29] = Selectivity index, ratio of maximum non-toxic concentration for human Caco-2 cells to MIC for antifungal activity against Candida krusei ATCC 34135; assay type: toxicity; conditions: read-out: Selectivity Index
[30] = Selectivity index, ratio of CC50 for African green monkey Vero cells to MIC for antifungal activity against Candida albicans ATCC 10231; assay type: toxicity; conditions: read-out: Selectivity Index
[31] = Selectivity index, ratio of maximum non-toxic concentration for human Caco-2 cells to MIC for antifungal activity against fluconazole-resistant Candida auris 383; assay type: toxicity; conditions: read-out: Selectivity Index
[32] = Selectivity index, ratio of CC50 for African green monkey Vero cells to MIC for antifungal activity against Candida krusei CAB 396420; assay type: toxicity; conditions: read-out: Selectivity Index
[33] = Selectivity index, ratio of maximum non-toxic concentration for human Caco-2 cells to MIC for antifungal activity against Candida glabrata ATCC 66032; assay type: toxicity; conditions: read-out: Selectivity Index
Nakaseomyces glabratus = assay: Antifungal activity against Candida glabrata ATCC 66032 assessed as reduction in fungal growth incubated for 24 hrs by CLSI based broth microdilution method; assay type: functional
[34] = Selectivity index, ratio of CC50 for African green monkey Vero cells to MIC for antifungal activity against fluconazole-resistant Candida auris 381; assay type: toxicity; conditions: read-out: Selectivity Index
Candida parapsilosis = assay: Antifungal activity against Candida parapsilosis CAB 502638 assessed as reduction in fungal growth incubated for 24 hrs by CLSI based broth microdilution method; assay type: functional; conditions: Lodderomyces parapsilosis
[35] = Selectivity index, ratio of CC50 for African green monkey Vero cells to MIC for antifungal activity against fluconazole-resistant Candida albicans NR29448; assay type: toxicity; conditions: read-out: Selectivity Index

Cc1nc(-c2ccc(C(C)(C)C)cc2)sc1-c1nnc(N[C@@H]2CCCC[C@@H]2N)o1 (relative stereo)
1 µg/mL: MIC [11] | MIC [17] | MIC (Pichia kudriavzevii [25]) | MIC (Candida albicans [27]) | MIC (Candida parapsilosis)
> 64 µg/mL: MIC (Escherichia coli)
2 µg/mL: MIC (Candida albicans [7]) | MIC ([Candida] auris [9]) | MIC (Cryptococcus neoformans) | MIC (Pichia kudriavzevii [19])
16%: Activity (Candida albicans [24])
> 128 µg/mL: MIC (Lactobacillus crispatus) | MIC (Lacticaseibacillus casei)
40%: inhibition (INH) (Candida albicans [6])
64 µg/mL: MIC (Clostridioides difficile)
128 µg/mL: MIC (Lactobacillus gasseri)
8 µg/mL: MIC (Aspergillus fumigatus [13]) | MIC (Candida albicans [14]) | MIC (Candida albicans [28])
≤ 64: selectivity ratio [1] | selectivity ratio [2] | selectivity ratio [3] | selectivity ratio [4] | selectivity ratio [5] | selectivity ratio [8] | selectivity ratio [10] | selectivity ratio [15] | selectivity ratio [16] | selectivity ratio [18] | selectivity ratio [21] | selectivity ratio [22] | selectivity ratio [26] | selectivity ratio [29] | selectivity ratio [30] | selectivity ratio [31] | selectivity ratio [32] | selectivity ratio [33] | selectivity ratio [34] | selectivity ratio [35]
100%: viability at 24 h [23]
4 µg/mL: MIC ([Candida] auris [12]) | MIC (Aspergillus fumigatus [20])
0.5 µg/mL: MIC (Nakaseomyces glabratus)
